We go through 23 molecules from patent US12612424B2, “HPK1 inhibitors and uses thereof” (Regor Pharmaceuticals, Inc., priority 2019, dated 2026).

The test deals with Human Pan T Cell (IL-2 release). Nature of the test: IL2 released by human pan T cell upon anti-CD3/anti-CD28 stimulation (ELISA). Type of test: cell-based. Conditions: human pan T cells; for EC (2-fold response) / maximal fold induction: 48 h; for EC (2-fold response) / EC2x (nM): concentration of compound that gives 200% IL-2 response (2 folds) over DMSO control; for EC50: IL-2 response, calculated with GraphPad Prism; for maximal fold induction: read-out: IL-2 Max Fold Response. The source says:
For example, Example 5 describes such a functional assay for determining the effect of an HPK1 inhibitor on IL-2 & IFN-γ release upon stimulation of Pan T cells. The secreted IL-2 & IFN-γ can be measured/quantified by standard ELISA assay. Briefly, pan T cells can be isolated from peripheral blood (PB) mononuclear cells (MNCs), or PBMC, using commercially available kits, such as MACS (Miltenyl Biotec) Pan T isolation kit (Cat. No. 130-096-535). Primary human pan-T cells include CD4 and CD8 T cells as well as some gamma/delta T cell subsets. The pan-T cells can be isolated using the negative immunomagnetic separation technique without the use of columns.
Isolated pan-T cells can be dispensed into 96-well plates at 100,000 cells/well, and stimulated with immobilized anti-CD3 antibody and soluable anti-CD28 antibody, or PMA/Ionomycin as the positive control (or culture media as the negative control). Different concentrations of test compounds can be added to the cells to assess the compound effect on cytokine secretion following TCR-stimulation/CD28 co-stimulation. Stimulated cells are incubated for 2 more days, before the supernatant (containing secreted cytokines by pan-T cells) is collected from each well for ELISA assay and quantitation of IL-2 and IFN-γ.
Biology Example 8 Compound Efficacy Study on IL2 & IFN-γ Released by Human Pan T Cell
This example is an assay method that can be used to determine compound effects on IL2 & IFN-γ release using pan T cells and ELISA assay format.
3. Procedures Procedures for Pan T isolation and Reagent preparation (Day 0): 1. Cell Growth Medium: • RPMI1640: ATCC, Cat #30-2001 • 10% FBS: Gibco, Cat #10099141 • 1% Pen-Strep: Gibco, Cat #15140122 • 1% Non-essential amino: Gibco, Cat #11140050 • Beta-Mercaptoethanol: Gibco, Cat #21985023 2. Pan T Isolation Buffer Preparation:
Prepare a solution containing phosphate-buffered saline (PBS), pH 7.2, 0.5% bovine serum albumin (BSA), and 2 mM EDTA by diluting MACS® BSA Stock Solution (#130-091-376) 20 times with autoMACS® Rinsing Solution. Keep buffer at 4° C. Degas buffer before use, as air bubbles could block the column.
3. Thawing of Frozen PBMC • 1) Pre-heat medium at 37° C. water bath. • 2) Rapidly thaw cells in 37° C. water bath. • 3) Add the pre-warmed medium into 15 mL tube. Transfer cells to the tube. • 4) 300×g centrifuge for 8 min. (centrifuge increase 0, decrease 0). • 5) Wash the PBMC using Rinsing buffer. • 6) Centrifuge PBMC at 300×g for 8 min, wash it twice (centrifuge increase 9, decrease 1). • 7) Resuspend the cells with Pan T cells isolation buffer and count cells number. 4. Pan T Cells Isolation: Cell Staining with Microbead Cocktail • 1) Prepare cells and determine cell number. Filter cells by 70 μm cell strainer. • 2) Resuspend cell pellet in 40 μL of buffer per 10^7 total cells. • 3) Add 10 μL of Pan T Cell Biotin-Antibody Cocktail per 10^7 total cells. • 4) Mix well and incubate for 10 minutes in the refrigerator (ice). • 5) Add 30 μL of buffer per 10^7 total cells. • 6) Add 20 μL of Pan T Cell MicroBead Cocktail per 10^7 total cells. • 7) Mix well and incubate for 15 minutes in the refrigerator (ice). • 8) Proceed to subsequent magnetic cell separation. • Note: a. Work fast, keep cells cold, and use pre-cooled solutions (2-8° C.). b. Volumes for magnetic labeling given are for up to 10′ total cells. When working with fewer cells, use the same volumes as indicated. c. When working with higher cell numbers, scale up all reagent volumes and total volumes accordingly. d. For optimal performance it is important to obtain a single-cell suspension before magnetic labeling. Subsequent Manual Cell Separation: • 1) Place LS Column in the magnetic field of a suitable MACS Separator. For details refer to the respective MACS Column data sheet. • 2) Prepare column by rinsing with 3 mL of buffer. • 3) Apply cell suspension onto the column. Collect flow-through, which represents the enriched T cells. • 4) Wash column with 5 mL of buffer. […]

Where [1] appears, read: Homo sapiens, T-cell, response of IL-2 over DMSO control, anti-CD3/anti-CD28, 48 hours, ELISA.

A value given as a limit tells only on which side of the number the result lay.

For orientation: EC50 means the concentration that produces a half-maximal response. Regarding `COc1cc2c(cc1Nc1ncc(Cl)c(N3CC(C)(CC(=O)O)c4ccccc43)n1)CN(C)CC2` (single isomer, unassigned) [Example 148], the concentration giving a half-maximal response (EC50) was at most 100 nM. Further, for the setting “Homo sapiens, T-cell”, the EC (2-fold response) is at most 0.1 µM. The “IL-2 Max Fold Response” value (response of IL-2 over DMSO control, anti-CD3/anti-CD28, 48 hours, ELISA) is listed as above 2.
`COc1cc2c(cc1Nc1ncc(Cl)c(-n3cc(CC(=O)O)c4cc(F)ccc43)n1)CN(C)CC2` [Example 138]: under “Homo sapiens, T-cell”, the EC (2-fold response) was in the range of 0.1 to 0.5 µM and the concentration giving a half-maximal response (EC50) was 100 to 500 nM. Also, the maximal fold induction under setting [1] is above 2.
Consider `COc1cc2c(cc1Nc1ncc(Cl)c(N3CC(C(=O)O)c4ccc(F)cc43)n1)CN(C)CC2` (centres unmarked) [Example 105], for which, under “Homo sapiens, T-cell”, the EC (2-fold response) was 0.1 to 0.5 µM and the EC50 was at most 100 nM. Moreover, the maximal fold induction under setting [1] was above 2.
As to `COc1cc2c(cc1Nc1ncc(Cl)c(-c3cn(CC(=O)O)c4ccccc34)n1)CN(C)CC2` [Example 161], the “EC2x (nM)” value is on record as “+ (“+”, for greater than 1 μM)”. In addition, the maximal fold induction under setting [1] is above 2. In addition, under “Homo sapiens, T-cell”, the concentration giving a half-maximal response (EC50) is above 1000 nM.
As for `COC(=O)C1CN(c2nc(Nc3cc4c(cc3OC)CCN(C)C4)ncc2Cl)c2ccccc21` (centres unmarked) [Example 115, Methyl 1-(5-chloro-2-((6-methoxy-2-methyl-1,2,3,4-tetrahydroisoquinolin-7-yl)amino)pyrimidin-4-yl)indoline-3-carboxylate], for the setting “Homo sapiens, T-cell”, the EC (2-fold response) was 0.1 to 0.5 µM and the EC50 is 100 to 500 nM. For the same molecule, under setting [1], the maximal fold induction is above 2.
Regarding `COc1cc2c(cc1Nc1ncc(Cl)c(-n3nc(C(=O)O)c4ccccc43)n1)CN(C)CC2` [Example 113], the maximal fold induction under setting [1] was below 2. In addition, the EC50 (Homo sapiens, T-cell) was above 1000 nM.
Take `COc1cc2c(cc1Nc1ncc(Cl)c(N3CC(C)(CC(=O)O)c4ccccc43)n1)CN(C)C2` (centres unmarked) [Example 159, 2-(1-(5-Chloro-2-((6-methoxy-2-methylisoindolin-5-yl)amino)pyrimidin-4-yl)-3-methylindolin-3-yl)acetic acid]: where the note is “Homo sapiens, T-cell”, the EC (2-fold response) is at most 0.1 µM and the EC50 was at most 100 nM. For the same molecule, under setting [1], the maximal fold induction was above 2.
On the same counts, the results for `COc1cc2c(cc1Nc1ncc(Cl)c(N3CC(C(=O)O)c4cc(F)ccc43)n1)CN(C)CC2` (centres unmarked) [Example 104] are 0.1 to 0.5 µM, 100 to 500 nM and above 2.
Turning to `COc1cc2c(cc1Nc1ncc3cc(C#N)n(-c4ccccc4)c3n1)CN(C)CC2` [Example 164, 2-((6-Methoxy-2-methyl-1,2,3,4-tetrahydroisoquinolin-7-yl)amino)-7-phenyl-7H-pyrrolo[2,3-d]pyrimidine-6-carbonitrile], the maximal fold induction under setting [1] was below 2. Moreover, the EC50 (Homo sapiens, T-cell) was at most 100 nM.
For the molecule `COc1cc2c(cc1Nc1nccc(N3CC(C(=O)O)c4ccccc43)n1)CN(C)CC2` (centres unmarked) [Example 163, 1-(2-((6-Methoxy-2-methyl-1,2,3,4-tetrahydroisoquinolin-7-yl)amino)pyrimidin-4-yl)indoline-3-carboxylic acid], the “EC2x (nM)” value is on record as “+ (“+”, for greater than 1 μM)”. In addition, under setting [1], the maximal fold induction was above 2. In addition, the concentration giving a half-maximal response (EC50) (Homo sapiens, T-cell) was above 1000 nM.
As for `COc1cc2c(cc1Nc1ncc(Cl)c(-c3nn(CC(=O)O)c4ccccc34)n1)CN(C)CC2` [Example 162, 2-(3-(5-Chloro-2-((6-methoxy-2-methyl-1,2,3,4-tetrahydroisoquinolin-7-yl)amino)pyrimidin-4-yl)-1H-indazol-1-yl)acetic acid], the maximal fold induction under setting [1] is below 2.
As to `COc1cc2c(cc1Nc1ncc(Cl)c(N3CC(C(=O)O)c4c(OC)cccc43)n1)CN(C)CC2` (centres unmarked) [Example 108, 1-(5-Chloro-2-((6-methoxy-2-methyl-1,2,3,4-tetrahydroisoquinolin-7-yl)amino)pyrimidin-4-yl)-4-methoxyindoline-3-carboxylic acid], the maximal fold induction under setting [1] was below 2. For the same molecule, under “Homo sapiens, T-cell”, the EC50 was above 1000 nM.
For `COc1cc2c(cc1Nc1ncc(Cl)c(-n3nc(CC(=O)O)c4ccccc43)n1)CN(C)CC2` [Example 141], the “EC2x (nM)” value is reported as “++ (“++”, for higher values than “+++” but less than or equal to 1 μM)”. Also, the maximal fold induction under setting [1] was above 2. Further, the EC50 (Homo sapiens, T-cell) was above 1000 nM.
For the molecule `COc1cc2c(cc1Nc1ncc(Cl)c(N3CC(C)(CC(=O)O)c4ccc(F)cc43)n1)CN(C)CC2` (single isomer, unassigned) [Example 152], under “Homo sapiens, T-cell”, the EC (2-fold response) was at most 0.1 µM and the EC50 was at most 100 nM. For the same molecule, under setting [1], the maximal fold induction is above 2.
In the case of `COc1cc2c(cc1Nc1ncc(Cl)c(-n3cc(S(N)(=O)=O)c4ccccc43)n1)CN(C)CC2` [Example 83, 1-(5-Chloro-2-((6-methoxy-2-methyl-1,2,3,4-tetrahydroisoquinolin-7-yl)amino)pyrimidin-4-yl)-1H-indole-3-sulfonamide], the maximal fold induction under setting [1] is below 2. The EC50 (Homo sapiens, T-cell) is 100 to 500 nM.
In the case of `COc1cc2c(cc1Nc1ncc(Cl)c(N3CC(C)(CC(=O)O)c4ccccc43)n1)CN(C)CC2` (single isomer, unassigned) [Example 147], the EC50 was 500 to 1000 nM. Besides, under setting [1], the maximal fold induction was below 2.
With `COc1cc2c(cc1Nc1ncc(Cl)c(N3CC(CO)c4ccccc43)n1)CN(C)CC2` (centres unmarked) [Example 87], the maximal fold induction under setting [1] is below 2. Also, the concentration for a half-maximal effect (EC50) (Homo sapiens, T-cell) was 100 to 500 nM.
Consider `COc1cc2c(cc1Nc1ncc(Cl)c(N3CC(S(C)(=O)=O)c4ccccc43)n1)CN(C)CC2` (centres unmarked) [Example 81, N-(5-chloro-4-(3-(methylsulfonyl)indolin-1-yl)pyrimidin-2-yl)-6-methoxy-2-methyl-1,2,3,4-tetrahydroisoquinolin-7-amine], for which, under “Homo sapiens, T-cell”, the EC (2-fold response) is 0.1 to 0.5 µM and the 50% effective concentration (EC50) was 500 to 1000 nM. The maximal fold induction under setting [1] is above 2.
`COc1cc2c(cc1Nc1ncc(Cl)c(N3CCc4cc(P(C)(C)=O)ccc43)n1)CN(C)CC2` [Example 86]: the “EC2x (nM)” value is “+ (“+”, for greater than 1 μM)”. For the same molecule, the maximal fold induction under setting [1] is above 2. Where the note is “Homo sapiens, T-cell”, the concentration for a half-maximal effect (EC50) is 100 to 500 nM.
For the molecule `COC(=O)CC1(C)CN(c2nc(Nc3cc4c(cc3OC)CCN(C)C4)ncc2Cl)c2ccccc21` (centres unmarked) [Example 145], under setting [1], the maximal fold induction was below 2.
Same read-out and setting: the same measure for `COc1cc2c(cc1Nc1ncc(Cl)c(N3CC(C)(C(N)=O)c4ccccc43)n1)CN(C)CC2` (centres unmarked) [Example 120, 1-(5-Chloro-2-((6-methoxy-2-methyl-1,2,3,4-tetrahydroisoquinolin-7-yl)amino)pyrimidin-4-yl)-3-methylindoline-3-carboxamide]: below 2.
For the molecule `COc1cc2c(cc1Nc1ncc(Cl)c(N3CC(CC(=O)O)c4ccccc43)n1)CN(C)CC2` (centres unmarked) [Example 128], under “Homo sapiens, T-cell”, the EC (2-fold response) was in the range of 0.1 to 0.5 µM and the concentration for a half-maximal effect (EC50) is 100 to 500 nM. The maximal fold induction under setting [1] is above 2.
Regarding `COc1cc2c(cc1Nc1ncc(Cl)c(N3CC4(CC4)c4ccccc43)n1)CN(C)CC2` [Example 84, N-(5-chloro-4-(spiro[cyclopropane-1,3′-indolin]-1′-yl)pyrimidin-2-yl)-6-methoxy-2-methyl-1,2,3,4-tetrahydroisoquinolin-7-amine], under setting [1], the maximal fold induction was below 2. The concentration giving a half-maximal response (EC50) (Homo sapiens, T-cell) is 500 to 1000 nM.
